Results reported in patent US11918563B1, “Methods and compositions for treatment of epileptic disorders” (Ovid Therapeutics Inc., priority 2016, dated 2024).
Read-outs that look alike come from different tables or passages of the source. Marks after values point to notes of the source that are not given here.

Assays:
[1] = system: Li-Pilo model of status epilepticus; assay: Ability to block benzodiazepine-resistant status epilepticus in the Li-Pilo model; format: in vivo, male Sprague Dawley rats
Protocol: At the conclusion of the behavioral observation period, a 3 mL injection of lactated Ringer's solution is administered to all surviving rats to replace any SE-induced fluid loss.
All animals in the study are retained for 24 hours following completion of the study for assessment of weight change.
Additional measures of effects, e.g., motor impairment, weight change post-SE, or survival from SE for 24 hrs are also recorded during the studies for all treatment conditions.

[2] = human, in vivo, po
[3] = for Fe: geometric mean N=10
[4] = three-month efficacy study, insomnia; cited from earlier work
[5] = patients with a history of drug abuse; cited from earlier work
[6] = 0.5 mg/kg i.p. 30 min after first convulsive seizure, rats
[7] = 2 mg/kg i.p. 30 min after first convulsive seizure, rats
[8] = 5 mg/kg i.p. 30 min after first convulsive seizure, rats
[9] = 10 mg/kg i.p. 30 min after first convulsive seizure, rats
[10] = 20 mg/kg i.p. 30 min after first convulsive seizure, rats

Row | SMILES | Protection (includes PK rats), percent [1, 6] | Protection (includes PK rats), protected/total [1, 6] | 24-hour Survival (excludes PK rats), percent ([1]; 0.5 mg/kg i.p., rats) | 24-hour Survival (excludes PK rats), survivors/total ([1]; 0.5 mg/kg i.p., rats) | Protection (includes PK rats), percent [1, 7] | Protection (includes PK rats), protected/total [1, 7] | 24-hour Survival (excludes PK rats), percent ([1]; 2 mg/kg i.p., rats) | 24-hour Survival (excludes PK rats), survivors/total ([1]; 2 mg/kg i.p., rats) | Protection (includes PK rats), percent [1, 8] | Protection (includes PK rats), protected/total [1, 8] | 24-hour Survival (excludes PK rats), percent ([1]; 5 mg/kg i.p., rats) | 24-hour Survival (excludes PK rats), survivors/total ([1]; 5 mg/kg i.p., rats) | Protection (includes PK rats), percent [1, 9] | Protection (includes PK rats), protected/total [1, 9] | 24-hour Survival (excludes PK rats), percent ([1]; 10 mg/kg i.p., rats) | 24-hour Survival (excludes PK rats), survivors/total ([1]; 10 mg/kg i.p., rats) | Protection (includes PK rats), percent [1, 10] | Protection (includes PK rats), protected/total [1, 10] | 24-hour Survival (excludes PK rats), percent ([1]; 20 mg/kg i.p., rats) | 24-hour Survival (excludes PK rats), survivors/total ([1]; 20 mg/kg i.p., rats) | other results
1 | CC(=O)[C@H]1CC[C@H]2[C@@H]3CC[C@H]4C[C@H](O)CC[C@]4(C)[C@H]3CC[C@]12C [ALLO, allopregnanolone] | (0%) | 0/13 | (60%) | 6/10 | (0%) | 0/13 | (70%) | 7/10 | (0%) | 0/13 | (72%) | 7/9 | (15%) | 2/13 | (90%) | 9/10 | (7.7%) | 1/13 | (90%) | 9/10 | 
2 | CCN(CC)CCN1C(=O)CN=C(c2ccccc2F)c2cc(Cl)ccc21 [Flurazepam, flurazepam] |  |  |  |  |  |  |  |  |  |  |  |  |  |  |  |  |  |  |  |  | Residual effect on primary endpoints Choice Reaction Time and Critical Flicker Fusion [2]: showed significant effect
3 | CC(=O)[C@H]1CC[C@H]2[C@@H]3CC[C@H]4C[C@](C)(O)CC[C@]4(C)[C@H]3CC[C@]12C [GNX, ganaxolone] | (0%) | 0/13 | (60%) | 6/10 | (0%) | 0/13 | (80%) | 8/10 | (0%) | 0/13 | (70%) | 7/10 | (7.7%) | 1/13 | (90%) | 9/10 | (30.8%)* | 4/13 | (90%) | 9/10 | Improvement in protection, in words ([1]; 20 mg/kg i.p., dose-dependent efficacy): significant (p<0.02) improvement in protection
4 | Oc1noc2c1CCNC2 [gaboxadol, 4,5,6,7-tetrahydroisoxazolo [5,4-c] pyridine-3-ol] |  |  |  |  |  |  |  |  |  |  |  |  |  |  |  |  |  |  |  |  | 24-hour survival, in words ([1]; 10 mg/kg, rats): Significant improvements in 24-hour survival; Dose-response profile of protection, in words ([1]; i.p., p=0.071 at 0.5 mg/kg): Potential for inverted U-response profile; Fe ([3]; 2.5 mg single oral dose): 43%; Fe ([3]; 5 mg single oral dose): 45%; Fe ([3]; 10 mg I.V.): 53%; Fe ([3]; 10 mg Oral): 53%; Fe ([3]; 15 mg single oral dose): 50%; Fe ([3]; 20 mg single oral dose): 53%; CL (in CL/F row) ([3]; human, in vivo, iv, 10 mg): 438 mL/min; AUC0-∞ Slope (dose proportionality assessment) ([3]; human, in vivo, po): 0.98; Cmax Slope (dose proportionality assessment) ([3]; human, in vivo, po): 0.95; CL/F ([3]; human, in vivo, po, 2.5 mg): 461 mL/min; CL/F ([3]; human, in vivo, po, 5 mg): 488 mL/min; CL/F ([3]; human, in vivo, po, 10 mg): 476 mL/min; CL/F ([3]; human, in vivo, po, 15 mg): 469 mL/min; CL/F ([3]; human, in vivo, po, 20 mg): 499 mL/min; Residual effect on primary endpoints Choice Reaction Time and Critical Flicker Fusion [2]: did not show residual effect; Residual effects on other measurements (MSLT, DSST, Tracking, Memory tests, Body Sway, Leeds Sleep Evaluation Questionnaire) [2]: did not show any signs of residual effects; Effects in sleep onset and sleep maintenance [4]: failed to show significant effects; Psychiatric adverse events [5]: steep increase in psychiatric adverse events
